Source: US10745360B2, “Quinoxaline compounds, method for preparing the same and use thereof” (Development Center for Biotechnology, priority 2014, dated 2020)
Where two headings read alike, the source gives them in different places.

Experiments:
[1] = tested on: SK-MEL-2 melanoma cell with wild type B-Raf (B-Raf^wt) and NRAS^Q61R mutation; assay: Cell proliferation assay (CELLTITER 96), SK-MEL-2; format: cell-based; details: Homo sapiens, SK-MEL-2, 72 hours, read-out: Cytotoxicity (IC50 Ranking) SK-MEL-2 (NRAS^Q61R, B-Raf^wt)
Procedure: (§1) Inhibition of cell growth by compounds was measured using CELLTITER 96® assay. The cytotoxicity of compounds was evaluated in B-Raf^V600E mutant A375 melanoma cell, B-Raf^V600E mutant COLO205 colon cancer cell, and SK-MEL-2 melanoma cell with wild type B-Raf (B-Raf^wt) and NRASQ^Q61R mutation. A375 and COLO205 cell line were cultured in DMEM containing 10% FCS and incubated at 37° C. in 5% CO2 atmosphere. SK-MEL-2 cell line was cultured in MEM containing 10% FCS and incubated at 37° C. in 5% CO2 atmosphere. A375, COLO205 and SK-MEL-2 cell were seeded into 96-well plates at 2000, 2000, and 4000 cells/well, respectively, and allowed to adhere for overnight. Then, these seeded cells were treated with increasing concentrations of the test compounds and incubated for another 72 hours. At the end of the incubation, CELLTITER 96® Aqueous One Solution Reagent (Promega) was added and incubated for 4 hours. Cell viability was determined by measuring absorbance at 490 nm using EMAX® microplate reader (Molecular Devices).
(§2) The 50% inhibitory concentration (IC50) value was calculated by plotting the percentage of growth inhibition against the concentration of compound, using GraphPad Prism5 software for curve fitting.

[2] = tested on: B-Raf^V600E mutant COLO205 colon cancer cell; assay: Cell proliferation assay (CELLTITER 96), COLO205; format: cell-based; details: Homo sapiens, COLO 205; COLO205, 72 hours; read-out: Cytotoxicity (IC50 Ranking) COLO205 (B-Raf^V600E)
Procedure: as §1, §2

[3] = biological target: T1, B-Raf^V600E kinase (Homo sapiens, UniProt P15056, V600E); assay: B-Raf V600E kinase assay ([33P] incorporation into MEK1 K97R); format: biochemical; details: recombinant B-Raf^V600E, 8 μM ATP, 30 min, 30° C.; read-out: IC50 ranking against B-Raf^V600E kinase
T1 construct: purchased Upstate Biotechnology
T1 sequence (P15056 whole entry V600E): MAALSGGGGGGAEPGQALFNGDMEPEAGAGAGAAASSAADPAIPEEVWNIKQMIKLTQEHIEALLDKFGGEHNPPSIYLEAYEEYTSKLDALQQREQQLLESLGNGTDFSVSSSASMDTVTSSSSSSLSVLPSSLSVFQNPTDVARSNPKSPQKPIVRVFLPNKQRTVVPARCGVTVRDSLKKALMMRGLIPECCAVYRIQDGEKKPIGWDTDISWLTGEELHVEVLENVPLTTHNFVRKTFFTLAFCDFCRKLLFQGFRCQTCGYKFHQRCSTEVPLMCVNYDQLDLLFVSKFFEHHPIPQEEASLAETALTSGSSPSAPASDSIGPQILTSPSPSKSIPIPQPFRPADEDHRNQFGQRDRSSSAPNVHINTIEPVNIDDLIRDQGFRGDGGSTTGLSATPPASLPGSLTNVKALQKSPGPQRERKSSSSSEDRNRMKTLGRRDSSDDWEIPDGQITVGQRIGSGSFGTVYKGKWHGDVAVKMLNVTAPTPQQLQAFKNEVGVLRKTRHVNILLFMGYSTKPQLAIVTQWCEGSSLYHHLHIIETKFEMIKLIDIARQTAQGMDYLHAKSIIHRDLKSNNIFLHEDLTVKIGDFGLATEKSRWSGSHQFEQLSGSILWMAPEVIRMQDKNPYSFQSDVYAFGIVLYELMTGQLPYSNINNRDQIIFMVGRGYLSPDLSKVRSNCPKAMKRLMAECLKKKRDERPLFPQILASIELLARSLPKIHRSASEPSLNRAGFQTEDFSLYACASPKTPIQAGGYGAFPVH
Procedure: (§3) Inhibition of kinase activity by a test compound disclosed herein was estimated by quantifying the amount of [^33P] incorporation of a substrate in the presence of the test compound. Standard assay conditions were 5 ng of recombinant B-Raf^V600E kinase (Upstate Biotechnology) with 500 ng MEK1 (K97R) in assay buffer (8 μM ATP, 0.5 μCi [^33P]ATP (specific activity 3000 Ci/mmol, PerkinElmer), 50 mM Tris/HCl (pH 7.5), and 1 mM EGTA, 1 mM Na3VO4, 1% 2-mercaptoethanol, 0.1% Brij 35, and 0.2 mg/ml BSA), and the test compound (diluted with 4% DMSO) or DMSO alone (as a control) in a final volume of 25 μL. Reactions were incubated at 30° C. for 30 min and stopped by adding 3% phosphoric acid, harvested onto a 96-well GF/B UniFilter (PerkinElmer) using a unifilter harvester (PerkinElmer), and counted with a TopCount microplate scintillation counter (PerkinElmer). The IC50 values of inhibitors were determined after carrying out assays at 3-fold serially diluted concentrations of each compound in duplication. The results were analyzed using linear regression software (GraphPad Prism 4; GraphPad Software Inc.).

[4] = tested on: B-Raf^V600E mutant A375 melanoma cell; assay: Cell proliferation assay (CELLTITER 96), A375; format: cell-based; details: Homo sapiens, A-375; A375, 72 hours; read-out: Cytotoxicity (IC50 Ranking) A375 (B-Raf^V600E)
Procedure: as §1, §2

[5] = biological target: T2, B-Raf kinase (Homo sapiens, UniProt P15056); assay: B-Raf kinase assay ([33P] incorporation into MEK1 K97R); format: biochemical; details: recombinant B-Raf, 8 μM ATP, 30 min, 30° C.; read-out: IC50 ranking against B-Raf kinase
T2 construct: purchased Upstate Biotechnology
T2 sequence (P15056 whole entry): as the sequence (P15056 whole entry V600E) above, with E600V counted along it
Procedure: Inhibition of kinase activity by a test compound disclosed herein was estimated by quantifying the amount of [^33P] incorporation of a substrate in the presence of the test compound. Standard assay conditions were 5 ng of recombinant B-Raf kinase (Upstate Biotechnology) with 500 ng MEK1(Map-erk kinase; K97R) in the assay buffer (8 μM ATP, 0.5 μCi [^33P]ATP (specific activity 3000 Ci/mmol, PerkinElmer), 50 mM Tris/HCl (pH 7.5), and 1 mM EGTA, 1 mM Na3VO4, 1% 2-mercaptoethanol, 0.1% Brij 35, and 0.2 mg/ml BSA) in a final volume of 25 μL. Reactions were incubated at 30° C. for 30 min and stopped by adding 3% phosphoric acid, harvested onto a 96-well GF/B UniFilter (PerkinElmer) using a unifilter harvester (PerkinElmer), and counted with a TopCount microplate scintillation counter (PerkinElmer). The IC50 values of inhibitors were determined after carrying out assays at 3-fold serially diluted concentrations of each compound in duplication. The results were analyzed using linear regression software (GraphPad Prism 4; GraphPad Software Inc.).

[6] = biological target: T3, C-Raf kinase (Homo sapiens, UniProt P04049); assay: C-Raf kinase assay ([33P] incorporation into MEK1 K97R); format: biochemical; details: recombinant C-Raf, 8 μM ATP, 30 min, 30° C.; read-out: IC50 ranking against C-Raf kinase
T3 construct: purchased Upstate Biotechnology
T3 sequence (P04049 whole entry): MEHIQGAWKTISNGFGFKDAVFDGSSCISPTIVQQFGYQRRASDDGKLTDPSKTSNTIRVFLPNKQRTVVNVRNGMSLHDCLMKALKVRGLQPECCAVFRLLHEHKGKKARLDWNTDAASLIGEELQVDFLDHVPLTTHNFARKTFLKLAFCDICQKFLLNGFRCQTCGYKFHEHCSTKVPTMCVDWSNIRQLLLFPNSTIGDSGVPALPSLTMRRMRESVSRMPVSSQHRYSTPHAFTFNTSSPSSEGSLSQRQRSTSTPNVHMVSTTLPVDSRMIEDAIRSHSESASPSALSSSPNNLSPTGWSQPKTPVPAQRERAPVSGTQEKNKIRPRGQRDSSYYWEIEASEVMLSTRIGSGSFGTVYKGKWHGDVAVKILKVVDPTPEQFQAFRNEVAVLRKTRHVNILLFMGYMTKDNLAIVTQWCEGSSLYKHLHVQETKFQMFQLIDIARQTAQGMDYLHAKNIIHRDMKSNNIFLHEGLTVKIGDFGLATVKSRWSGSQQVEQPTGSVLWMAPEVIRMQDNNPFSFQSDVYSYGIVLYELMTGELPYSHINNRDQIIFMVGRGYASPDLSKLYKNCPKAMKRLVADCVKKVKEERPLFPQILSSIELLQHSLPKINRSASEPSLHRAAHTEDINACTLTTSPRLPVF
Procedure: as §3, with “were 2” for “were 5”, “recombinant C-Raf” for “recombinant B-Raf^V600E”, “ng MEK1(K97R)” for “ng MEK1 (K97R)”

| IC50 [3] [nM] | IC50 [5] [nM] | IC50 [6] [nM] | SMILES | IC50 ([1]; given as bound) [nM] | IC50 [2] [nM] | IC50 [4] [nM] | IC50 ([1]; given as class symbol) [nM] |
| --- | --- | --- | --- | --- | --- | --- | --- |
| < 300 | < 300 | < 300 | CCCS(=O)(=O)Nc1ccc(F)c(Nc2ccc3ncc(OC)nc3c2C=O)c1F [compound 29, N-(2,4-difluoro-3-(5-formyl-3-methoxyquinoxalin-6-ylamino)phenyl)propane-1-sulfonamide] | > 10000 | < 300 | < 300 | – |
| 300 to 1000 | 300 to 1000 | 300 to 1000 | CCCS(=O)(=O)Nc1ccc(F)c(Nc2ccc3ncc(OC)nc3c2C(=O)O)c1F [compound 30, 6-(2,6-difluoro-3-(propylsulfonamido)phenylamino)-3-methoxyquinoxaline-5-carboxylic acid] | > 10000 | 1000 to 10000 | 1000 to 10000 | – |
| < 300 | < 300 | < 300 | CCCS(=O)(=O)Nc1ccc(F)c(Nc2ccc3ncc(OC)nc3c2C(=O)OC)c1F [compound 31, methyl 6-(2,6-difluoro-3-(propylsulfonamido)phenylamino)-3-methoxyquinoxaline-5-carboxylate] | > 10000 | 300 to 1000 | 300 to 1000 | – |
| < 300 | < 300 | < 300 | N#Cc1c(Nc2c(F)ccc(NS(=O)(=O)CCCF)c2F)ccc2ncc(N3CCOCC3)nc12 [compound 33, N-(3-(5-cyano-3-morpholinoquinoxalin-6-ylamino)-2,4-difluorophenyl)-3-fluoropropane-1-sulfonamide] | – | < 300 | < 300 | 1000 to 10000 |
| < 300 | < 300 | < 300 | CCOc1cnc2ccc(Nc3c(F)ccc(NS(=O)(=O)CCCF)c3F)c(C#N)c2n1 [compound 34, N-(3-(5-cyano-3-ethoxyquinoxalin-6-ylamino)-2,4-difluorophenyl)-3-fluoropropane-1-sulfonamide] | > 10000 | < 300 | < 300 | – |
| < 300 | < 300 | < 300 | COc1cnc2ccc(Nc3cc(NS(=O)(=O)c4ccccc4)ccc3F)c(C#N)c2n1 [compound 35, N-(3-(5-cyano-3-methoxyquinoxalin-6-ylamino)-4-fluorophenyl)benzenesulfonamide] | > 10000 | < 300 | < 300 | – |
| < 300 | < 300 | < 300 | CCCS(=O)(=O)Nc1ccc(F)c(Nc2ccc3ncc(OCC)nc3c2C#N)c1 [compound 36, N-(3-(5-cyano-3-ethoxyquinoxalin-6-ylamino)-4-fluorophenyl)propane-1-sulfonamide] | > 10000 | < 300 | < 300 | – |
| < 300 | < 300 | < 300 | CN(C)c1cnc2ccc(Nc3cc(NS(=O)(=O)c4ccccc4)ccc3F)c(C#N)c2n1 [compound 37, N-(3-(5-cyano-3-(dimethylamino)quinoxalin-6-ylamino)-4-fluorophenyl)benzenesulfonamide] | > 10000 | 1000 to 10000 | 1000 to 10000 | – |
| < 300 | < 300 | < 300 | CCCS(=O)(=O)Nc1cccc(Nc2ccc3ncc(N4CCOCC4)nc3c2C#N)c1C [compound 38, N-(3-(5-cyano-3-morpholinoquinoxalin-6-ylamino)-2-methylphenyl)propane-1-sulfonamide] | > 10000 | < 300 | < 300 | – |
| 300 to 1000 | 300 to 1000 | 1000 to 10000 | CCCS(=O)(=O)Nc1ccc(C)c(Nc2ccc3ncc(N4CCOCC4)nc3c2C#N)c1 [compound 39, N-(3-(5-cyano-3-morpholinoquinoxalin-6-ylamino)-4-methylphenyl)propane-1-sulfonamide] | > 10000 | 1000 to 10000 | 1000 to 10000 | – |
| 300 to 1000 | 300 to 1000 | 300 to 1000 | CCCS(=O)(=O)Nc1ccc(C)c(Nc2ccc3ncc(OC)nc3c2C#N)c1 [compound 40, N-(3-(5-cyano-3-methoxyquinoxalin-6-ylamino)-4-methylphenyl)propane-1-sulfonamide] | > 10000 | 1000 to 10000 | 1000 to 10000 | – |
| 1000 to 10000 | 1000 to 10000 | 1000 to 10000 | COc1cnc2ccc(Nc3cc(NS(C)(=O)=O)ccc3F)c(C#N)c2n1 [compound 41, N-(3-(5-cyano-3-methoxyquinoxalin-6-ylamino)-4-fluorophenyl)methanesulfonamide] | > 10000 | 1000 to 10000 | 1000 to 10000 | – |
| < 300 | < 300 | < 300 | CCCS(=O)(=O)N(CC)c1ccc(F)c(Nc2ccc3ncc(OC)nc3c2C#N)c1F [compound 42, N-(3-(5-cyano-3-methoxyquinoxalin-6-ylamino)-2,4-difluorophenyl)-N-ethylpropane-1-sulfonamide] | > 10000 | < 300 | < 300 | – |
| < 300 | < 300 | < 300 | CCCS(=O)(=O)N(C)c1ccc(F)c(Nc2ccc3ncc(OC)nc3c2C#N)c1F [compound 43, N-(3-(5-cyano-3-methoxyquinoxalin-6-ylamino)-2,4-difluorophenyl)-N-methylpropane-1-sulfonamide] | > 10000 | < 300 | < 300 | – |
| 300 to 1000 | < 300 | < 300 | CCCS(=O)(=O)Nc1cccc(Nc2ccc3ncc(OC)nc3c2C#N)c1C [compound 44, N-(3-(5-cyano-3-methoxyquinoxalin-6-ylamino)-2-methylphenyl)propane-1-sulfonamide] | > 10000 | 300 to 1000 | 300 to 1000 | – |
